According to PubChem BioAssay AID2060495 (Molecular Pharmacology Branch, DTP, NCI, 2025):

System: 521955-158-R2-J5-PDC complex spheroid viability
Test: Anticancer human tumor 521955-158-R2-J5-PDC patient-derived pancreatic carcinoma cell line growth inhibition [GQUAD]
Conditions: for IC50: curve of first compound; for viability, T/C: stronger effect = lower value
Procedure, shortened: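 Viability of tumor cells grown as complex spheroids with endothelial and stromal cells, exposed to drug combinations. Top concentration at or near clinical Cmax (else 10 microM), diluted in half-log increments.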

[1] = second compound 0.0316 µM, first compound 0.0316 µM
[2] = second compound 0.0316 µM, first compound 0.1 µM
[3] = second compound 0.0316 µM, first compound 0.316 µM
[4] = second compound 0.0316 µM, first compound 1 µM
[5] = second compound 0.0316 µM, first compound 3.16 µM
[6] = second compound 0.0316 µM, first compound 10 µM
[7] = second compound 0.1 µM, first compound 0.0316 µM
[8] = second compound 0.1 µM, first compound 0.1 µM
[9] = second compound 0.1 µM, first compound 0.316 µM
[10] = second compound 0.1 µM, first compound 1 µM
[11] = second compound 0.1 µM, first compound 3.16 µM
[12] = second compound 0.1 µM, first compound 10 µM
[13] = second compound 0.316 µM, first compound 0.0316 µM
[14] = second compound 0.316 µM, first compound 0.1 µM
[15] = second compound 0.316 µM, first compound 0.316 µM
[16] = second compound 0.316 µM, first compound 1 µM
[17] = second compound 0.316 µM, first compound 3.16 µM
[18] = second compound 0.316 µM, first compound 10 µM
[19] = second compound 1 µM, first compound 0.0316 µM
[20] = second compound 1 µM, first compound 0.1 µM
[21] = second compound 1 µM, first compound 0.316 µM
[22] = second compound 1 µM, first compound 1 µM
[23] = second compound 1 µM, first compound 3.16 µM
[24] = second compound 1 µM, first compound 10 µM
[25] = second compound 3.16 µM, first compound 0.0316 µM
[26] = second compound 3.16 µM, first compound 0.1 µM
[27] = second compound 3.16 µM, first compound 0.316 µM
[28] = second compound 3.16 µM, first compound 1 µM
[29] = second compound 3.16 µM, first compound 3.16 µM
[30] = second compound 3.16 µM, first compound 10 µM
[31] = second compound 10 µM, first compound 0.0316 µM
[32] = second compound 10 µM, first compound 0.1 µM
[33] = second compound 10 µM, first compound 0.316 µM
[34] = second compound 10 µM, first compound 1 µM
[35] = second compound 10 µM, first compound 3.16 µM
[36] = second compound 10 µM, first compound 10 µM
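Further: spheroids exposed to agents for one week before reading.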
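Wherever viability, T/C is given: 100% = DMSO vehicle control viability.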

C#Cc1c(F)ccc2cc(O)cc(-c3ncc4c(N5CC6CCC(C5)N6)nc(OCC56CCCN5CC(F)C6)nc4c3F)c12 (stereo not given) + Cc1[nH]c2ccc(F)cc2c1-c1nc2c3cccnc3c3ncccc3c2[nH]1
IC50 (second compound 0.0316 µM): 1640 nM
IC50 (second compound 0.1 µM): > 10000 nM
IC50 (second compound 0.316 µM): 3500 nM
IC50 (second compound 1 µM): 7530 nM
IC50 (second compound 3.16 µM): 4290 nM
IC50 (second compound 10 µM): 1040 nM
viability, T/C [1]: 79.8%
viability, T/C [2]: 68.6%
viability, T/C [3]: 67.3%
viability, T/C [4]: 40.5%
viability, T/C [5]: 57%
viability, T/C [6]: 36.3%
viability, T/C [7]: 82.2%
viability, T/C [8]: 81%
viability, T/C [9]: 64.4%
viability, T/C [10]: 45.1%
viability, T/C [11]: 58.3%
viability, T/C [12]: 46.4%
viability, T/C [13]: 74.9%
viability, T/C [14]: 67.4%
viability, T/C [15]: 53%
viability, T/C [16]: 61%
viability, T/C [17]: 54%
viability, T/C [18]: 42.7%
viability, T/C [19]: 58.9%
viability, T/C [20]: 72.2%
viability, T/C [21]: 68.2%
viability, T/C [22]: 57.5%
viability, T/C [23]: 59.1%
viability, T/C [24]: 47.4%
viability, T/C [25]: 54.1%
viability, T/C [26]: 58.5%
viability, T/C [27]: 59.5%
viability, T/C [28]: 50%
viability, T/C [29]: 62.7%
viability, T/C [30]: 30.9%
viability, T/C [31]: 53.3%
viability, T/C [32]: 55.4%
viability, T/C [33]: 60.6%
viability, T/C [34]: 47.4%
viability, T/C [35]: 39.4%
viability, T/C [36]: 26.6%

COc1cc(C2c3cc4c(cc3C(OC3OC5COC(C)OC5C(O)C3O)C3COC(=O)C23)OCO4)cc(OC)c1O (stereo not given) + Cc1[nH]c2ccc(F)cc2c1-c1nc2c3cccnc3c3ncccc3c2[nH]1
IC50 (second compound 0.0316 µM): 645 nM
IC50 (second compound 0.1 µM): 576 nM
IC50 (second compound 0.316 µM): 661 nM
IC50 (second compound 1 µM): 628 nM
IC50 (second compound 3.16 µM): 653 nM
IC50 (second compound 10 µM): 556 nM
viability, T/C [1]: 99.5%
viability, T/C [2]: 72.6%
viability, T/C [3]: 73%
viability, T/C [4]: 41%
viability, T/C [5]: 14%
viability, T/C [6]: 9.66%
viability, T/C [7]: 81%
viability, T/C [8]: 102%
viability, T/C [9]: 70.6%
viability, T/C [10]: 29.8%
viability, T/C [11]: 15.1%
viability, T/C [12]: 10.7%
viability, T/C [13]: 104%
viability, T/C [14]: 94.9%
viability, T/C [15]: 76.3%
viability, T/C [16]: 34%
viability, T/C [17]: 18.7%
viability, T/C [18]: 7.53%
viability, T/C [19]: 84.2%
viability, T/C [20]: 114%
viability, T/C [21]: 82.2%
viability, T/C [22]: 27.6%
viability, T/C [23]: 15.4%
viability, T/C [24]: 9.36%
viability, T/C [25]: 74.8%
viability, T/C [26]: 100%
viability, T/C [27]: 73.1%
viability, T/C [28]: 35.6%
viability, T/C [29]: 14.7%
viability, T/C [30]: 11.6%
viability, T/C [31]: 96.3%
viability, T/C [32]: 94%
viability, T/C [33]: 66.8%
viability, T/C [34]: 31.9%
viability, T/C [35]: 17.1%
viability, T/C [36]: 12.4%

CCCS(=O)(=O)Nc1ccc(F)c(C(=O)c2c[nH]c3ncc(-c4ccc(Cl)cc4)cc23)c1F + CN(C)c1ccc(Nc2c3ccc(NC(=O)CCN4CCCC4)cc3nc3cc(NC(=O)CCN4CCCC4)ccc23)cc1
IC50 (second compound 0.0316 µM): > 10000 nM
IC50 (second compound 0.1 µM): > 10000 nM
IC50 (second compound 0.316 µM): > 10000 nM
IC50 (second compound 1 µM): > 10000 nM
IC50 (second compound 3.16 µM): 6690 nM
IC50 (second compound 10 µM): 3720 nM
viability, T/C [1]: 124%
viability, T/C [2]: 89.2%
viability, T/C [3]: 80.7%
viability, T/C [4]: 118%
viability, T/C [5]: 271%
viability, T/C [6]: 106%
viability, T/C [7]: 102%
viability, T/C [8]: 84%
viability, T/C [9]: 72.4%
viability, T/C [10]: 109%
viability, T/C [11]: 264%
viability, T/C [12]: 106%
viability, T/C [13]: 95.5%
viability, T/C [14]: 90.1%
viability, T/C [15]: 92.5%
viability, T/C [16]: 104%
viability, T/C [17]: 248%
viability, T/C [18]: 98.3%
viability, T/C [19]: 95.4%
viability, T/C [20]: 76.4%
viability, T/C [21]: 76.8%
viability, T/C [22]: 171%
viability, T/C [23]: 251%
viability, T/C [24]: 85.2%
viability, T/C [25]: 73%
viability, T/C [26]: 83.6%
viability, T/C [27]: 61%
viability, T/C [28]: 111%
viability, T/C [29]: 174%
viability, T/C [30]: 22.9%
viability, T/C [31]: 69.9%
viability, T/C [32]: 68.4%
viability, T/C [33]: 111%
viability, T/C [34]: 100%
viability, T/C [35]: 58%
viability, T/C [36]: 2.26%

COc1ccc([C@@H](O)c2cc(-c3ncnc4cc(N5CCOCC5)ccc34)c(F)cc2Cl)nn1 + CN(C)c1ccc(Nc2c3ccc(NC(=O)CCN4CCCC4)cc3nc3cc(NC(=O)CCN4CCCC4)ccc23)cc1
IC50 (second compound 0.0316 µM): 7260 nM
IC50 (second compound 0.1 µM): 5610 nM
IC50 (second compound 0.316 µM): 6450 nM
IC50 (second compound 1 µM): 5520 nM
IC50 (second compound 3.16 µM): 2500 nM
IC50 (second compound 10 µM): 2000 nM
viability, T/C [1]: 91.8%
viability, T/C [2]: 107%
viability, T/C [3]: 91.8%
viability, T/C [4]: 78.9%
viability, T/C [5]: 68.3%
viability, T/C [6]: 43.3%
viability, T/C [7]: 94.2%
viability, T/C [8]: 96.8%
viability, T/C [9]: 92.3%
viability, T/C [10]: 83.9%
viability, T/C [11]: 60%
viability, T/C [12]: 39.9%
viability, T/C [13]: 88.9%
viability, T/C [14]: 105%
viability, T/C [15]: 106%
viability, T/C [16]: 77.8%
viability, T/C [17]: 66.5%
viability, T/C [18]: 41%
viability, T/C [19]: 87.4%
viability, T/C [20]: 101%
viability, T/C [21]: 83%
viability, T/C [22]: 72.4%
viability, T/C [23]: 59.2%
viability, T/C [24]: 41.5%
viability, T/C [25]: 66.4%
viability, T/C [26]: 83.1%
viability, T/C [27]: 74.9%
viability, T/C [28]: 73.7%
viability, T/C [29]: 44%
viability, T/C [30]: 28.8%
viability, T/C [31]: 59.8%
viability, T/C [32]: 55.6%
viability, T/C [33]: 71.3%
viability, T/C [34]: 54.9%
viability, T/C [35]: 45.1%
viability, T/C [36]: 16.7%

CC1COCCN1c1cc(C2(O)CC3CCC(C2)O3)c2cnn(-c3ccn[nH]3)c2n1 (stereo not given) + Cc1[nH]c2ccc(F)cc2c1-c1nc2c3cccnc3c3ncccc3c2[nH]1
IC50 (second compound 0.0316 µM): < 31.6 nM
IC50 (second compound 0.1 µM): < 31.6 nM
IC50 (second compound 0.316 µM): < 31.6 nM
IC50 (second compound 1 µM): < 31.6 nM
IC50 (second compound 3.16 µM): < 31.6 nM
IC50 (second compound 10 µM): < 31.6 nM
viability, T/C [1]: 32.6%
viability, T/C [2]: 10.8%
viability, T/C [3]: 13.3%
viability, T/C [4]: 19.7%
viability, T/C [5]: 19.2%
viability, T/C [6]: 8.74%
viability, T/C [7]: 32.5%
viability, T/C [8]: 11.2%
viability, T/C [9]: 12.6%
viability, T/C [10]: 19.3%
viability, T/C [11]: 20.1%
viability, T/C [12]: 8.59%
viability, T/C [13]: 28.1%
viability, T/C [14]: 11.6%
viability, T/C [15]: 12.2%
viability, T/C [16]: 16.5%
viability, T/C [17]: 20.5%
viability, T/C [18]: 7.43%
viability, T/C [19]: 34.3%
viability, T/C [20]: 10.7%
viability, T/C [21]: 12.4%
viability, T/C [22]: 17.4%
viability, T/C [23]: 22.9%
viability, T/C [24]: 10.7%
viability, T/C [25]: 38.7%
viability, T/C [26]: 10.7%
viability, T/C [27]: 13.9%
viability, T/C [28]: 22.5%
viability, T/C [29]: 25.4%
viability, T/C [30]: 8.16%
viability, T/C [31]: 29.5%
viability, T/C [32]: 10.6%
viability, T/C [33]: 15%
viability, T/C [34]: 20.7%
viability, T/C [35]: 26.7%
viability, T/C [36]: 6.74%
